Like-named read-outs stand apart in the source and are kept apart here.
Experiments:
[1] = system: aged Rhesus macaque monkeys; assay: Delayed match-to-sample test; type: in vivo, Monkey (Rhesus); settings: for Minimum Effective Dose: PO
Procedure: Further elucidating the potent behavioral and cognitive effects of exemplary ampakines useful within the invention, additional studies using the well known Monkey Delayed Match to Sample assay were conducted. CX1739 was evaluated using aged Rhesus macaque monkeys (18 to 33 years old), undertaking the delayed match-to-sample (DMTS) task. The stimuli included red, blue, or yellow rectangles. A trial was initiated by presentation of a sample rectangle composed of one of the three colors. The sample rectangle remained in view until the monkey touched within its borders to initiate a pre-programmed delay (retention) interval. Following the delay interval, two choice rectangles were presented, with one of the two choice colors being the color matching the stimulus and the other (incorrect) color as one of the two remaining colors. A correct (matching) choice was reinforced. Non-matching choices were neither reinforced nor punished. The duration for each delay interval was adjusted for each subject until […] of group performance accuracy approximated zero delay (85-100% of trials answered correctly), short delay interval (75-84% correct), medium delay interval (65-74% correct), and long delay interval (55-64% correct). The inter-trial interval was 5 seconds and each session consisted of 96 trials.

[2] = system: hippocampal slices (CA1 population spikes)
Procedure: Slice Seizure Assay In these studies extracellular field potentials recording (Population Spikes) in hippocampal slices were used to determine convulsant activity (potential seizure liability). Transverse 300-400 μm hippocampal slices were taken from adult male Sprague-Dawley rats (4-6 week old) and incubated in a submerge slice recording chamber system for 30 to 60 min. The chamber was perfused with oxygenated artificial cerebral spinal fluid (ACSF) comprising (in mM): NaCl 124, KCl 3.0, KH2PO4 1.25, CaCl2.34, MgSO4 2.5, NaHCO3 26 and glucose 10 at room temperature. Population Spike (PS) recordings were made with glass electrodes filled with 2 M NaCl (1-5 megaohm) places in the region of pyramidal cell body of CA1. Electrical stimuli were produced with twisted bipolar nichrome wire electrodes in the Schaffer-commissural fiber afferents. Population spike was induced by activating Schaffer-commissural fiber using single pulse stimulation with delivered at 0.05 Hz. The maximal amplitude of PS was determined by increase stimulating intensity till second spike appears. Then the intensity was decreased to induce a 50% to 60% of maximal response. The amplitude of PS was measured for each response and plotted against time. At same time the amplitude of second PS and/or number of PS was measured and plotted against time. The size of the second PS and numbers of PS were used to estimate the seizure potential or seizure state. With 20 to 50 min stable baseline established testing compound was perfused for 10 to 20 min at each concentration to observe the effect. […] The perfusion then was switched to control ACSF and continued to record until drug effect was washed back to the baseline. CX717 and CX1739 exemplary test ampakine compounds were prepared by dissolving in DMSO and then added to ACSF.
The upper 3 panels of FIG. 5 show amplitudes for PS 1, 2 and 3 m respectively. Lower panel is the measurement of the number of PS.

Mouse (CD1) = assay: Amphetamine-stimulated locomotion in mice; type: in vivo; settings: for Minimum Effective Dose: IP, dose range 5.6-30 mg/kg; for amphetamine-stimulated locomotion, pre-treatment: amphetamine 2 mg/kg i.p.
Procedure: Effects of exemplary low impact ampakines were also evaluated in mice for the ability to inhibit amphetamine-stimulated locomotor activity. Mice were placed in the locomotor chamber for 20 min to habituate, removed, injected with either vehicle or anti-ADHD ampakine (CX717), and 5 min later injected with 2 mg/kg i.p. Amphetamine. Mice were returned to the locomotor chamber 10 min later, and their activity measured for a further 15 min. In related studies, adult male CD1 mice or male Sprague-Dawley rats were acclimated in a test chamber for 20 minutes removed and dosed i.p. (mice) or orally (rats) with CX1739, vehicle, or a reference compound. Five (mice) or 10 (rats) were then injected with amphetamine (2 mg/kg, i.p.) or saline vehicle and were returned to the activity test chamber.

Rat (Wistar) = assay: Novel object recognition memory; type: in vivo; settings: for Minimum Effective Dose: IP
Procedure: Additional Novel Object Recognition behavioral model studies were conducted to further elucidate the anti-ADHD activities of CX717 and CX1739. Rats were habituated to a test box for two 5 minute sessions on consecutive days. Each test session consisted of two phases: in the first phase (“sample period”), two identical objects (A1 and A2) were placed in the far corners of the box, and the rats were allowed to explore the objects. After a 24 hour delay, rats were re-introduced to the arena (“test period”) now containing a third identical copy of the familiar object (A3) and a new object (B), placed in the same locations as in the first phase, and the total time spent exploring each of the objects was determined over a 3-min duration. For CX717 drug treatment, rats were dosed 30 min prior to each sample session with either 0.1, 0.3, 1.0 mg/kg CX717 (p.o.); vehicle (0.5% methylcellulose, p.o.) or 0.9 mg/kg Aricept (E2020, i.p.). The exploration times for the full 3-min were calculated and expressed as the discrimination index, d1, defined as the absolute difference in time spent exploring the novel object minus the familiar object.
For CX1739 Male Wistar rats were assessed for cognitive ability in a test apparatus comprising an open-field arena placed in a sound-attenuated room under dimmed lighting. Rat exploration and activity were captured by a digital camera, and viewed on a monitor in an adjoining area. Following a 5-minute habituation period, each animal was placed in the test arena in the presence of two identical objects (plastic shapes) and the time spent actively exploring the objects during a 5-minute test period (T1) was recorded. After 24 hours, each rat was again placed in the test arena for 5 minutes (T2) in the presence of one familiar object and one novel object, and the time spent exploring both objects was recorded. The Recognition Index was calculated as the percentage of total exploration time spent exploring the novel object during the retention session (T2), which provides the primary measure of cognitive function in this assay.
The Novel object recognition (NOR) paradigm is a rodent model of recognition learning memory retrieval and takes advantage of the spontaneous behavior of rodents to investigate a novel object compared with a familiar object. NOR has been employed extensively to indicate cognition-enhancing properties of drug candidates, predictive of therapeutic efficacy of positively-assaying drugs for reducing ADHD symptoms in humans.

Row | Structure (SMILES) | Minimum Effective Dose [1] [mg/kg] | seizure activity (population spikes) ([2]; concentrations up to 600 uM) | Minimum Effective Dose (Mouse (CD1)) [mg/kg] | amphetamine-stimulated locomotion, pre-treatment (Mouse (CD1)) | d1 scores (discrimination index) (Rat (Wistar); 0.3 mg/kg, compared to vehicle) | Minimum Effective Dose (Rat (Wistar)) [mg/kg] | performance with medium or long delays ([1]; oral, 45 min prior to testing) | mean accuracies during short delay trials relative to vehicle ([1]; oral, 45 min prior to testing, particularly the two higher doses, persisted at 24 hours) | task accuracy at the Best Dose ([1]; sessions 45 min after administration, P=0.027, restricted to long delay trials) | seizure activity (population spikes) ([2]; 100 μM for 20 min and then 200 μM for another 20 min) | amplitude of the first PS ([2]; 100 μM then 200 μM perfusion) | amphetamine-stimulated locomotion (Mouse (CD1); 30 mg/kg ip) | preference for novel object exploration versus positive control (Rat (Wistar); 0.03 mg/kg) | preference for exploring the novel object (Rat (Wistar); rat, in vivo)
1 | O=C(c1ccc2nonc2c1)N1CCOCC1 [CX717, 1-(benzofurazan-5-ylcarbonyl)morpholine] | 0.8 | did not display seizure activity | 18 | inhibited amphetamine-stimulated locomotion in mice in a dose-dependent manner | significant increase | 0.3 |  |  |  |  |  |  |  | 
2 | CN(C(=O)c1ccc2nonc2c1)C1CCOCC1 [CX1739, N-Methyl-N-tetrahydro-2H-pyran-4-yl-[2,1,3]-benzoxadiazole-5-carboxamide] | 0.3 |  | 30 | inhibited amphetamine-stimulated locomotion in mice in a dose-dependent manner |  | 0.03 | did not improve performance | increased | statistically significant increase in task accuracy | no sign of seizure activity | did not change the amplitude of the first PS | significant decrease | comparable to that of 3 mg/kg galantamine | significant increase

Source: patent US20210340130A1, “Compositions and methods for treating attention deficit disorders” (priority 2016, published 2021)
